Measured values published in patent US8067032B2, “Method for preparing submicron particles of antineoplastic agents” (Baxter International Inc., priority 2000, dated 2011).
≈ marks a conversion by molar mass, not a printed value.

Test: Solubility of itraconazole in NMP
Format: physicochemical
Conditions: organic solvent or mixture, room temperature (approximately 22° C.)
Method: Sample preparation. […] A 0.20 g/mL drug concentrate solution was prepared by dissolving 2.0 g of itraconazole and 0.2 g Poloxamer 188 in 10 mL NMP with heat and stirring. This solution was then allowed to cool to room temperature to yield a supersaturated solution. A microprecipitation experiment was immediately performed in which 1.5 mL of the drug concentrate was added to 30 mL of an aqueous solution containing 0.1% deoxycholate, 2.2% glycerol. The aqueous solution was maintained at ˜2° C. and a stir rate of 350 rpm during the addition step. The resulting presuspension was homogenized at ˜13,000 psi for approx. 10 minutes at 50° C. The suspension was then centrifuged, the supernatant decanted, and the solid crystals dried in a vacuum oven at 30° C. for 135 hours.

Work on CCC(C)n1ncn(-c2ccc(N3CCN(c4ccc(OCC5COC(Cn6cncn6)(c6ccc(Cl)cc6Cl)O5)cc4)CC3)cc2)c1=O (stereo not shown) [itraconazole] yielded a solubility of 160 mg/mL (≈ 227 mM).
